{"source": "paper PMC6407917", "about": "“Identification of GSK3186899/DDD853651 as a Preclinical Development Candidate for the Treatment of Visceral Leishmaniasis” (Journal of Medicinal Chemistry, 2018)", "assay_in_all_cases": "biochemical", "set-up_in_all_cases": "species or system HEK293/K-562/placenta mixed human extract; Kinobeads chemoproteomic competition binding, quantified by TMT LC-MS/MS, dose response up to 20 uM", "key": {"MAP3K1": {"target": "MAP3K1 (Homo sapiens, UniProt Q13233)"}, "PTK2B": {"target": "PTK2B (Homo sapiens, UniProt Q14289)", "sequence (Q14289 whole entry)": "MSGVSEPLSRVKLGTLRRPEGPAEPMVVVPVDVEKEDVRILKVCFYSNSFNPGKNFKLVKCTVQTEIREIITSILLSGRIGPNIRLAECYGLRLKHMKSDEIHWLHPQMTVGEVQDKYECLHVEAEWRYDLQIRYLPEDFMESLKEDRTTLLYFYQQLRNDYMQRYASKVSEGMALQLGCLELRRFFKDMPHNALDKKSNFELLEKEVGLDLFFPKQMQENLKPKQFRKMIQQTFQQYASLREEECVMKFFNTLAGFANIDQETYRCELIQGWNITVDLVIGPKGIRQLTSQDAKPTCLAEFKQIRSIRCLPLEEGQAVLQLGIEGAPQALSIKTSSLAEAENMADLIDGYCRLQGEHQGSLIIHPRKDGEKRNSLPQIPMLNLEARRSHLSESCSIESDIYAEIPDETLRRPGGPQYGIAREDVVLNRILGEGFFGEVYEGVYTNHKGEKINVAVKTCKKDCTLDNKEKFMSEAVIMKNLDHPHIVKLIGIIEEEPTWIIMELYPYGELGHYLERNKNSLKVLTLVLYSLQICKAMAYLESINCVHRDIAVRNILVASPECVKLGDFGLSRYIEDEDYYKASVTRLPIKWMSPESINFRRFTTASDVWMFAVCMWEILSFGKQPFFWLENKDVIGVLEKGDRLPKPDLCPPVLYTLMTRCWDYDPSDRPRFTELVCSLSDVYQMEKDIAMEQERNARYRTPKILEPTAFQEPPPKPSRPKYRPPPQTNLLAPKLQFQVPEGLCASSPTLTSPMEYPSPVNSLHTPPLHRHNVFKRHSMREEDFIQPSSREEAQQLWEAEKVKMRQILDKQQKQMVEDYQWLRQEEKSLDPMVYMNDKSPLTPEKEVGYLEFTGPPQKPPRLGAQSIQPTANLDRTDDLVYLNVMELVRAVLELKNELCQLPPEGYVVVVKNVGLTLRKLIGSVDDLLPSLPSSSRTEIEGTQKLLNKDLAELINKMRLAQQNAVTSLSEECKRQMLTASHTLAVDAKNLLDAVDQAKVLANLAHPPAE"}, "MELK": {"target": "MELK (Homo sapiens, UniProt Q14680)"}, "STK17B": {"target": "STK17B (Homo sapiens, UniProt O94768)", "sequence (O94768 whole entry)": "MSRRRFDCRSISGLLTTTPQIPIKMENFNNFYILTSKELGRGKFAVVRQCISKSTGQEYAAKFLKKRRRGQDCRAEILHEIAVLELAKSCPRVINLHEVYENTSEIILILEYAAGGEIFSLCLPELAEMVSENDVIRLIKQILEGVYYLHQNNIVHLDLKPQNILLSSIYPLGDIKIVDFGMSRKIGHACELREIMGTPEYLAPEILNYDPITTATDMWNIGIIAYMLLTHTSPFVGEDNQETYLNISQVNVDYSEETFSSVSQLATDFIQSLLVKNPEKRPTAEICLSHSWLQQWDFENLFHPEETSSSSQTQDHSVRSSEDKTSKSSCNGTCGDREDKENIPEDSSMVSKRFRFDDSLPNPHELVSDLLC"}, "MINK1": {"target": "MINK1 (Homo sapiens, UniProt Q8N4C8)", "sequence (Q8N4C8 whole entry)": "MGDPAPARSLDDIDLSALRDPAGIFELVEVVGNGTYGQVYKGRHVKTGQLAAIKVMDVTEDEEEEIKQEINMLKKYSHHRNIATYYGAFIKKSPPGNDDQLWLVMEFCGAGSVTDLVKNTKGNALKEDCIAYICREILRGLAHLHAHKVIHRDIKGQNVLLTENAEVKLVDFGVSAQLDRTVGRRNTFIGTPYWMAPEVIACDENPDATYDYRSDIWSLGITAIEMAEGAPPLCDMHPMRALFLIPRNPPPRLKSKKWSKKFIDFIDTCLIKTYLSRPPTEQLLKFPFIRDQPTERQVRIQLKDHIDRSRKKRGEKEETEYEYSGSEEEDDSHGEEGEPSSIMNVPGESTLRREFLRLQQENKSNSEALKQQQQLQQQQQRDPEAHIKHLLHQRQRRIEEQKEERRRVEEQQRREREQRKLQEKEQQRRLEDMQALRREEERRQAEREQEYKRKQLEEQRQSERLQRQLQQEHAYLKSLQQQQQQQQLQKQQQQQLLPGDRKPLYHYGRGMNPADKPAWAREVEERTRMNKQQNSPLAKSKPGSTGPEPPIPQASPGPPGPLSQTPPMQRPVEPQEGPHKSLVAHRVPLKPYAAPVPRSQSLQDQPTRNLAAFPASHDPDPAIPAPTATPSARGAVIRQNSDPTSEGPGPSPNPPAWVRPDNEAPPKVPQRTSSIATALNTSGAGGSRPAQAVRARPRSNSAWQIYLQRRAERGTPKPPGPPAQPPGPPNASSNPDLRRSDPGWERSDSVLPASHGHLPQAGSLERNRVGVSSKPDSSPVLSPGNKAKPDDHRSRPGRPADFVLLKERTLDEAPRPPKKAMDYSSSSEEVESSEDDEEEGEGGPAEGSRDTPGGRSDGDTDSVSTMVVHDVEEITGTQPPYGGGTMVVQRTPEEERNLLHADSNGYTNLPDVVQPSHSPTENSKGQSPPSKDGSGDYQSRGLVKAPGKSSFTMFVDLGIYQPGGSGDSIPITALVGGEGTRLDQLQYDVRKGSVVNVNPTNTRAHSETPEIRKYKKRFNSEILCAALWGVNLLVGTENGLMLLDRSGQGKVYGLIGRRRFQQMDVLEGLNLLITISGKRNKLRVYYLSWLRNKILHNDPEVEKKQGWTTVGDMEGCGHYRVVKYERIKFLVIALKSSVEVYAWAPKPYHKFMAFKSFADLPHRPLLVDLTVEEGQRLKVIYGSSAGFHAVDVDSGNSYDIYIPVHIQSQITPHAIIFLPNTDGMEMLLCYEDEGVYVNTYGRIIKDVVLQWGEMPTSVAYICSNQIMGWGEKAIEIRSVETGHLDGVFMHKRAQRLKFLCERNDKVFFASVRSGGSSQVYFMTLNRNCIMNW"}, "PRKAG1": {"target": "PRKAG1 (Homo sapiens, UniProt P54619)"}, "TEC": {"target": "TEC (Homo sapiens, UniProt P42680)"}, "NEK2": {"target": "NEK2 (Homo sapiens, UniProt P51955)"}, "CAMKK1": {"target": "CAMKK1 (Homo sapiens, UniProt Q8N5S9)", "sequence (Q8N5S9 whole entry)": "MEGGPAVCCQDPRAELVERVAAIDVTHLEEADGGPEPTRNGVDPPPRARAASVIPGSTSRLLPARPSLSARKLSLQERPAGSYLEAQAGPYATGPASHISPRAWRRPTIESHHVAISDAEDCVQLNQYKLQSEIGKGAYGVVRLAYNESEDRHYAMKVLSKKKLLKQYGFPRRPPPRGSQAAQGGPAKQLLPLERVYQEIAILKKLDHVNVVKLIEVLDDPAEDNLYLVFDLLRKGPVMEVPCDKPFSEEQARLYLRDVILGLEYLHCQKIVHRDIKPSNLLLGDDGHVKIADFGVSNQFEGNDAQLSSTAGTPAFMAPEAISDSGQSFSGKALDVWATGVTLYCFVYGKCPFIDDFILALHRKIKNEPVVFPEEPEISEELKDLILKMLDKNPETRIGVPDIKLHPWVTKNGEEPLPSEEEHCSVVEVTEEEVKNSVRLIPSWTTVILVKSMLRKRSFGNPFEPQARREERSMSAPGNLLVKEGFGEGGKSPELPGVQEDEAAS"}, "PDIK1L": {"target": "PDIK1L (Homo sapiens, UniProt Q8N165)", "sequence (Q8N165 whole entry)": "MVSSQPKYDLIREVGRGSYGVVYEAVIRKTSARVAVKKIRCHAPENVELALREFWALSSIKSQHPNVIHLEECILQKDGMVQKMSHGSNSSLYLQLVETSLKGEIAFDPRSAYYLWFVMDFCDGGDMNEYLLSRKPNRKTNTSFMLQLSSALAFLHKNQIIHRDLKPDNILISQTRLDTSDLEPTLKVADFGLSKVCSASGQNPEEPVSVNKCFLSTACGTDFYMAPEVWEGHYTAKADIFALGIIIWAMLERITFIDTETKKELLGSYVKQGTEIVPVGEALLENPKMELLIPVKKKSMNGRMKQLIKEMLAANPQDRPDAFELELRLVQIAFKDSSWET"}, "MAP2K3": {"target": "MAP2K3 (Homo sapiens, UniProt P46734)"}, "PRKCB": {"target": "PRKCB (Homo sapiens, UniProt P05771)"}, "DCK": {"target": "DCK (Homo sapiens, UniProt P27707)"}, "ITK": {"target": "ITK (Homo sapiens, UniProt Q08881)"}, "RPS6KA1": {"target": "RPS6KA1 (Homo sapiens, UniProt Q15418)"}, "BMX": {"target": "BMX (Homo sapiens, UniProt P51813)"}, "EPHA4": {"target": "EPHA4 (Homo sapiens, UniProt P54764)"}, "PLK1": {"target": "PLK1 (Homo sapiens, UniProt P53350)"}, "NLK": {"target": "NLK (Homo sapiens, UniProt Q9UBE8)", "sequence (Q9UBE8 whole entry)": "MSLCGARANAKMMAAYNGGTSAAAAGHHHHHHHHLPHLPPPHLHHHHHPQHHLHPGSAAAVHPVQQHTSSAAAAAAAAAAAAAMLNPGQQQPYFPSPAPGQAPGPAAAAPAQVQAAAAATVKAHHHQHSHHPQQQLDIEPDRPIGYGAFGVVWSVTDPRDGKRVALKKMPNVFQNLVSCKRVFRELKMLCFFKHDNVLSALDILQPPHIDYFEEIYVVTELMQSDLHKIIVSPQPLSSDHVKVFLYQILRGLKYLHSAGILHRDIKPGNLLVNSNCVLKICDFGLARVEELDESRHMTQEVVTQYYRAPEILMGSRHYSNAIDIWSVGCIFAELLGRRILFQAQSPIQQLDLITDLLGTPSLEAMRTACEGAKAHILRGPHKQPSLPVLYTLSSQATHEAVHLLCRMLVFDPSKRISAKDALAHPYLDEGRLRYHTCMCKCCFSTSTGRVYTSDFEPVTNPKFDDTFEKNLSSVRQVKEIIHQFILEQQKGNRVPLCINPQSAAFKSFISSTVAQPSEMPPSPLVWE"}, "RPS6KA5": {"target": "RPS6KA5 (Homo sapiens, UniProt O75582)", "sequence (O75582 whole entry)": "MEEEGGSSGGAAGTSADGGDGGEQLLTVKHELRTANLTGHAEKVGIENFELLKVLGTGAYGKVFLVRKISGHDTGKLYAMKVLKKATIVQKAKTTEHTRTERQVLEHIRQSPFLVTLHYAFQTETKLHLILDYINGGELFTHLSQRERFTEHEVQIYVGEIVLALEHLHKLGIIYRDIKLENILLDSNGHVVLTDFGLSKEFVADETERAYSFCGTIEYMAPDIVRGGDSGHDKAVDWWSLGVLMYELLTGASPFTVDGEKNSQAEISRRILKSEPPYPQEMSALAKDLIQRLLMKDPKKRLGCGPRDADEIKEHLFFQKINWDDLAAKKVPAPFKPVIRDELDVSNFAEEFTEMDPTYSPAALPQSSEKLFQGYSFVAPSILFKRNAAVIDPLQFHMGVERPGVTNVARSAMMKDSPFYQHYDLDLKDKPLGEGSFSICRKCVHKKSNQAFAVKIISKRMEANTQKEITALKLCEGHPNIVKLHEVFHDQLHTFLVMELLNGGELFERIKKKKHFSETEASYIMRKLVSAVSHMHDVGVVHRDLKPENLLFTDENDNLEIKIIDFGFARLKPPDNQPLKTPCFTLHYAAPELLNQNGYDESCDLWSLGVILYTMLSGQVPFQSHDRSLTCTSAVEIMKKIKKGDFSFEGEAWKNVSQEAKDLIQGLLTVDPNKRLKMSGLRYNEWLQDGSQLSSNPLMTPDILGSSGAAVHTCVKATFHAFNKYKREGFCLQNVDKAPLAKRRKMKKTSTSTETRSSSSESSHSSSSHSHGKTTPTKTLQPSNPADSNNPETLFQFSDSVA"}, "MAST3": {"target": "MAST3 (Homo sapiens, UniProt O60307)"}}}
{"smiles": "COc1nc(N[C@H]2CC[C@H](NS(=O)(=O)CC(C)C)CC2)nc2[nH]nc(N3CCOC[C@H]3C)c12", "note": "[compound 39, N-(trans-4-((4-Methoxy-3-((R)-3-methylmorpholino)-1H-pyrazolo[3,4-d]pyrimidin-6-yl)amino)cyclohexyl)-2-methylpropane-1-sulfonamide]", "values": [{"measurement": "IC50", "setting": "MAP3K1", "result": "≥ 20", "unit": "µM"}, {"measurement": "IC50", "setting": "PTK2B", "result": "≥ 20", "unit": "µM"}, {"measurement": "IC50", "setting": "MELK", "result": "≥ 20", "unit": "µM"}, {"measurement": "IC50", "setting": "STK17B", "result": "≥ 20", "unit": "µM"}, {"measurement": "IC50", "setting": "MINK1", "result": "≥ 20", "unit": "µM"}, {"measurement": "IC50", "setting": "PRKAG1", "result": "≥ 20", "unit": "µM"}, {"measurement": "IC50", "setting": "TEC", "result": "≥ 20", "unit": "µM"}, {"measurement": "IC50", "setting": "NEK2", "result": "≥ 20", "unit": "µM"}, {"measurement": "IC50", "setting": "CAMKK1", "result": "≥ 20", "unit": "µM"}, {"measurement": "IC50", "setting": "PDIK1L", "result": "≥ 20", "unit": "µM"}, {"measurement": "IC50", "setting": "MAP2K3", "result": "≥ 20", "unit": "µM"}, {"measurement": "IC50", "setting": "PRKCB", "result": "≥ 20", "unit": "µM"}, {"measurement": "IC50", "setting": "DCK", "result": "≥ 20", "unit": "µM"}, {"measurement": "IC50", "setting": "ITK", "result": "≥ 20", "unit": "µM"}, {"measurement": "IC50", "setting": "RPS6KA1", "result": "≥ 20", "unit": "µM"}, {"measurement": "IC50", "setting": "BMX", "result": "≥ 20", "unit": "µM"}, {"measurement": "IC50", "setting": "EPHA4", "result": "≥ 20", "unit": "µM"}, {"measurement": "IC50", "setting": "PLK1", "result": "≥ 20", "unit": "µM"}, {"measurement": "IC50", "setting": "NLK", "result": 3.5, "unit": "µM"}, {"measurement": "IC50", "setting": "RPS6KA5", "result": "≥ 20", "unit": "µM"}, {"measurement": "IC50", "setting": "MAST3", "result": "≥ 20", "unit": "µM"}]}
